Measured values as given in ChEMBL document CHEMBL1201862, “PubChem BioAssay data set” (2004).
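96-well plates; 48 h exposure; 5 concentrations. Endpoints by linear interpolation between flanking doses. Not reached: highest tested concentration assigned. GI50 marks 50% less growth.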 Active and inactive are the calls of the source. Cut-off read from the data, not from the text of the source: active = GI50 up to about 1.1 µM and inactive = higher.

Key:
Assay in all cases: growth of human tumour cells (NCI), 48 h
TK-10 = tested on: TK-10
A549 = tested on: A549
SK-MEL-5 = tested on: SK-MEL-5
OVCAR-3 = tested on: OVCAR-3
COLO 205 = tested on: COLO 205
ACHN = tested on: ACHN
Hs-578T = tested on: Hs-578T
MDA-MB-435 = tested on: MDA-MB-435
IGROV-1 = tested on: IGROV-1
HT-29 = tested on: HT-29
BT-549 = tested on: BT-549
OVCAR-8 = tested on: OVCAR-8
Malme-3M = tested on: Malme-3M
MCF7 = tested on: MCF7
NCI-H522 = tested on: NCI-H522
SK-OV-3 = tested on: SK-OV-3
EKVX = tested on: EKVX
LOX IMVI = tested on: LOX IMVI
SF-295 = tested on: SF-295
HOP-92 = tested on: HOP-92
SK-MEL-28 = tested on: SK-MEL-28
SF-268 = tested on: SF-268
UO-31 = tested on: UO-31
HCT-15 = tested on: HCT-15
SF-539 = tested on: SF-539
DU-145 = tested on: DU-145
NCI-H23 = tested on: NCI-H23
A498 = tested on: A498
SNB-75 = tested on: SNB-75
OVCAR-5 = tested on: OVCAR-5
786-0 = tested on: 786-0
SNB-19 = tested on: SNB-19
NCI/ADR-RES = tested on: NCI/ADR-RES
M14 = tested on: M14
UACC-257 = tested on: UACC-257
HCT-116 = tested on: HCT-116
KM12 = tested on: KM12
RPMI-8226 = tested on: RPMI-8226
MDA-MB-231 = tested on: MDA-MB-231
PC-3 = tested on: PC-3
RXF 393 = tested on: RXF 393
T47D = tested on: T47D
HCC 2998 = tested on: HCC 2998
UACC-62 = tested on: UACC-62
K562 = tested on: K562
HL-60 = tested on: HL-60
SN12C = tested on: SN12C
MOLT-4 = tested on: MOLT-4
HOP-62 = tested on: HOP-62
NCI-H226 = tested on: NCI-H226
NCI-H460 = tested on: NCI-H460
SW-620 = tested on: SW-620
U-251 = tested on: U-251
OVCAR-4 = tested on: OVCAR-4
SR = tested on: SR
MDA-N = tested on: MDA-N
CCRF-CEM = tested on: CCRF-CEM
SK-MEL-2 = tested on: SK-MEL-2
CAKI-1 = tested on: CAKI-1

Measured: GI50

O=C(Nn1c(-c2ccccc2)nc2ccccc2c1=O)c1ccc([N+](=O)[O-])cc1
inactive: TK-10 > 100 µM | A549 > 100 µM | SK-MEL-5 64.1 µM | OVCAR-3 > 100 µM | COLO 205 > 100 µM | ACHN > 100 µM | Hs-578T > 100 µM | MDA-MB-435 > 100 µM | IGROV-1 > 100 µM | HT-29 > 100 µM | BT-549 55.7 µM | OVCAR-8 > 100 µM | Malme-3M > 100 µM | MCF7 58.7 µM | NCI-H522 > 100 µM | SK-OV-3 > 100 µM | EKVX > 100 µM | LOX IMVI > 100 µM | SF-295 > 100 µM | HOP-92 32.4 µM | SK-MEL-28 72.3 µM | SF-268 > 100 µM | UO-31 > 100 µM | SF-539 > 100 µM | DU-145 > 100 µM | NCI-H23 > 100 µM | A498 46.7 µM | SNB-75 > 100 µM | OVCAR-5 > 100 µM | 786-0 > 100 µM | SNB-19 > 100 µM | NCI/ADR-RES > 100 µM | M14 > 100 µM | UACC-257 > 100 µM | HCT-116 > 10 µM | KM12 > 100 µM | RPMI-8226 > 100 µM | MDA-MB-231 > 100 µM | PC-3 > 100 µM | RXF 393 49.2 µM | T47D > 100 µM | HCC 2998 > 100 µM | UACC-62 45.2 µM | K562 > 100 µM | HL-60 > 100 µM | SN12C > 100 µM | MOLT-4 > 100 µM | HOP-62 > 100 µM | NCI-H226 46.3 µM | NCI-H460 > 100 µM | SW-620 > 100 µM | U-251 > 100 µM | OVCAR-4 > 100 µM | SR > 100 µM | MDA-N > 100 µM | CCRF-CEM > 100 µM
> 100 µM: HCT-15

CC(C)(C)OC(=O)N1C/C=C\C(=O)C2(OCCO2)c2ccccc21
31.7 µM: HCT-15
inactive: TK-10 24.3 µM | A549 35.2 µM | SK-MEL-5 16.5 µM | OVCAR-3 15.7 µM | COLO 205 17.7 µM | ACHN 34.2 µM | Hs-578T 45 µM | MDA-MB-435 17.7 µM | IGROV-1 16.9 µM | HT-29 19.2 µM | BT-549 22.5 µM | OVCAR-8 24.9 µM | Malme-3M 22.7 µM | MCF7 31.4 µM | NCI-H522 24 µM | SK-OV-3 37.3 µM | EKVX 31.3 µM | LOX IMVI 16.7 µM | SF-295 26.4 µM | HOP-92 15.9 µM | SK-MEL-28 22.5 µM | SF-268 34 µM | UO-31 17.7 µM | SF-539 22.1 µM | DU-145 28.6 µM | NCI-H23 36.1 µM | A498 > 100 µM | SNB-75 28.2 µM | OVCAR-5 > 100 µM | 786-0 23.9 µM | SNB-19 35.5 µM | NCI/ADR-RES 47.5 µM | M14 20.7 µM | UACC-257 20.8 µM | HCT-116 17.4 µM | KM12 31.6 µM | RPMI-8226 20.4 µM | MDA-MB-231 19.6 µM | PC-3 29.4 µM | RXF 393 21.2 µM | T47D 21.3 µM | SK-MEL-2 24.5 µM | K562 22 µM | SN12C 26.5 µM | MOLT-4 19.5 µM | HOP-62 48.9 µM | NCI-H226 19.1 µM | NCI-H460 22.7 µM | SW-620 25.1 µM | U-251 29.9 µM | OVCAR-4 28.4 µM | SR 25.8 µM | CAKI-1 33.7 µM | MDA-N 20.4 µM | CCRF-CEM 25.4 µM

COc1cc2c(cc1OCc1ccccc1)NC(=O)[C@@H]1C[C@@H](O)CN1C2=O
inactive: TK-10 > 100 µM | A549 > 100 µM | SK-MEL-5 > 100 µM | OVCAR-3 > 100 µM | COLO 205 > 100 µM | ACHN > 100 µM | Hs-578T > 100 µM | MDA-MB-435 > 100 µM | IGROV-1 > 100 µM | HT-29 > 100 µM | BT-549 > 100 µM | OVCAR-8 > 100 µM | Malme-3M > 100 µM | MCF7 > 100 µM | NCI-H522 > 100 µM | SK-OV-3 > 100 µM | EKVX > 100 µM | LOX IMVI > 100 µM | SF-295 > 100 µM | HOP-92 > 100 µM | SK-MEL-28 > 100 µM | SF-268 > 100 µM | UO-31 > 100 µM | SF-539 > 100 µM | DU-145 > 100 µM | NCI-H23 > 100 µM | A498 > 100 µM | SNB-75 35.6 µM | OVCAR-5 > 100 µM | 786-0 > 100 µM | SNB-19 > 100 µM | NCI/ADR-RES > 100 µM | M14 > 100 µM | UACC-257 > 100 µM | HCT-116 > 100 µM | KM12 > 100 µM | RPMI-8226 > 100 µM | MDA-MB-231 75 µM | PC-3 > 100 µM | RXF 393 > 100 µM | T47D > 100 µM | SK-MEL-2 > 100 µM | HCC 2998 > 100 µM | UACC-62 > 100 µM | K562 > 100 µM | SN12C > 100 µM | MOLT-4 > 100 µM | HOP-62 47.6 µM | NCI-H226 > 100 µM | NCI-H460 > 100 µM | SW-620 > 100 µM | U-251 > 100 µM | OVCAR-4 > 100 µM | SR 47 µM | CAKI-1 > 100 µM | MDA-N > 100 µM | CCRF-CEM > 100 µM
> 100 µM: HCT-15
